In the supplement of paper PMC10331698:
± gives the standard deviation of the averaged measurements.

What was measured:
Test in all cases: level (log10 ratio to DMSO vehicle control); higher = higher biomarker level / cell amount than vehicle control
[1] = compound: O=C(O)C(F)(F)OC(F)(F)C(F)(F)OC(F)(F)C(F)(F)OC(F)(F)C(F)(F)C(F)(F)C(F)(F)F [Perfluoro-3,6,9-trioxatridecanoic acid] (in DMSO); settings: 6700 nM
Protocol: (§1)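 BioMAP Diversity Plus panel of 12 human primary cell co-culture systems (3C, 4H, LPS, SAg, BT, BF4T, BE3C, CASM3C, HDF3CGF, KF3CT, MyoF, Mphg). Compounds were added 1 h before stimulation and left for 24 h (MyoF 48 h; BT 72 h for soluble read-outs or 6 d for IgG). Biomarkers were read by ELISA, cytotoxicity by SRB, PBMC viability and proliferation by Alamar Blue. Each well value was divided by the mean of 8 DMSO control wells on the same plate and log10 transformed; duplicate blinded samples were tested at 4 concentrations.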

[2] = compound: O=S(=O)(O)C(F)(F)C(F)(F)OC(F)(F)C(F)(F)F [Perfluoro(2-ethoxyethane)sulfonic acid] (in DMSO)
Protocol: as §1

[3] = compound: OCC(F)(F)OC(F)(F)C(F)(F)OC(F)(F)C(F)(F)OC(F)(F)CO [1H,1H,11H,11H-Perfluorotetraethylene glycol] (in DMSO)
Protocol: as §1

Octafluoroadipic acid = compound: O=C(O)C(F)(F)C(F)(F)C(F)(F)C(F)(F)C(=O)O [Octafluoroadipic acid] (in DMSO)
Protocol: as §1

[4] = compound: CN(C(=O)C(F)(F)C(F)(F)C(F)(F)F)[Si](C)(C)C [N-Methyl-N-trimethylsilylheptafluorobutyramide] (in DMSO)
Protocol: as §1

[5] = compound: O=C(O)CCC(F)(C(F)(F)F)C(F)(F)F [4,4-bis(Trifluoromethyl)-4-fluoropropanoic acid] (in DMSO)
Protocol: as §1

[6] = compound: CO[Si](C)(CCC(F)(F)C(F)(F)C(F)(F)C(F)(F)C(F)(F)C(F)(F)F)OC [Dimethoxymethyl((perfluorohexyl)ethyl)silane] (in DMSO)
Protocol: as §1

Row | Test System | level (log10) [1] | level (log10) ([2]; 6700 nM) | level (log10) ([2]; 20000 nM) | level (log10) ([2]; 60000 nM) | level (log10) ([3]; 6700 nM) | level (log10) ([3]; 20000 nM) | level (log10) ([3]; 60000 nM) | level (log10) (Octafluoroadipic acid; 6700 nM) | level (log10) (Octafluoroadipic acid; 20000 nM) | level (log10) (Octafluoroadipic acid; 60000 nM) | level (log10) ([4]; 6700 nM) | level (log10) ([4]; 20000 nM) | level (log10) ([4]; 60000 nM) | level (log10) ([5]; 6700 nM) | level (log10) ([5]; 20000 nM) | level (log10) ([5]; 60000 nM) | level (log10) ([6]; 6700 nM) | level (log10) ([6]; 20000 nM)
1 | CASM3C:CD106/VCAM-1 | -0.035 ± 0.024 | -0.0035 ± 0.023 | -0.0165 ± 0.026 | 0.001 ± 0.018 | 0.025 ± 0.011 | 0.017 ± 0.011 | 0.032 ± 0.0085 | -0.0055 ± 0.011 | -0.011 ± 0.013 | -0.019 | -0.007 ± 0.0042 | -0.027 ± 0.0057 | -0.0175 ± 0.013 | -0.0265 ± 0.049 | -0.0185 ± 0.056 | -0.033 ± 0.0099 | -0.0265 ± 0.012 | -0.0155 ± 0.005
2 | CASM3C:CD141/Thrombomodulin | -0.0345 ± 0.0064 | 0.005 ± 0.011 | -0.015 ± 0.0071 | 0.023 ± 0.044 | -0.0135 ± 0.015 | -0.009 ± 0.0085 | 0.035 ± 0.0042 | 0.0115 ± 0.0021 | 0.0105 ± 0.021 | 0.0065 ± 0.022 | -0.0195 ± 0.025 | -0.027 ± 0.011 | -0.011 ± 0.0042 | -0.0525 ± 0.069 | -0.032 ± 0.041 | 0.0035 ± 0.019 | -0.008 ± 0.0057 | -0.015 ± 0.021
3 | CASM3C:CD142/Tissue Factor | 0.013 ± 0.02 | -0.023 ± 0.0085 | -0.0335 ± 0.035 | 0.045 ± 0.067 | -0.0165 ± 0.032 | -0.024 ± 0.013 | -0.0125 ± 0.0035 | -0.011 ± 0.0071 | -0.0045 ± 0.0092 | -0.0145 ± 0.00071 | -0.021 ± 0.016 | -0.012 ± 0.0028 | 0.0135 ± 0.026 | -0.0325 ± 0.047 | -0.011 | 0.0385 ± 0.049 | -0.001 ± 0.011 | -0.0075 ± 0.005
4 | CASM3C:CXCL8/IL-8 | 0.002 ± 0.0085 | -0.0095 ± 0.00071 | -0.0055 ± 0.0078 | 0.0265 ± 0.005 | 0.002 ± 0.016 | -0.0085 ± 0.016 | -0.004 ± 0.011 | -0.0005 ± 0.0092 | -0.002 ± 0.0071 | 0.0045 ± 0.022 | -0.006 | -0.006 ± 0.0028 | 0.008 ± 0.0042 | -0.0115 ± 0.012 | -0.0135 ± 0.012 | -0.0195 ± 0.005 | -0.004 | 0.004 ± 0.0085
5 | CASM3C:CXCL9/MIG | -0.01 ± 0.0014 | -0.0205 ± 0.0064 | -0.0105 ± 0.0035 | 0.0145 ± 0.057 | 0.0135 ± 0.028 | 0.0135 ± 0.013 | 0.0415 ± 0.00071 | -0.0055 ± 0.0078 | -0.01 ± 0.0071 | 0.001 ± 0.021 | -0.0095 ± 0.005 | -0.0065 ± 0.015 | 0.008 ± 0.03 | -0.0035 ± 0.005 | -0.0165 ± 0.00071 | 0.018 ± 0.047 | -0.012 ± 0.017 | -0.003 ± 0.013
6 | CASM3C:HLA-DR | -0.0005 ± 0.0078 | 0.011 ± 0.0099 | 0 ± 0.02 | -0.005 ± 0.016 | -0.002 ± 0.0099 | -0.0115 ± 0.0021 | -0.005 ± 0.0085 | -0.0035 ± 0.019 | -0.0095 ± 0.032 | -0.0025 ± 0.0078 | -0.0175 ± 0.0021 | -0.0105 ± 0.012 | 0.013 ± 0.011 | -0.035 ± 0.0014 | -0.0285 ± 0.012 | 0.0035 ± 0.012 | -0.012 ± 0.021 | -0.0005 ± 0.0035
7 | CASM3C:IL-6 | -0.0055 ± 0.061 | -0.024 ± 0.0028 | -0.041 ± 0.033 | -0.0725 ± 0.015 | -0.0195 ± 0.021 | -0.0305 ± 0.026 | -0.013 ± 0.035 | -0.0225 ± 0.0092 | -0.0115 ± 0.0064 | 0.013 ± 0.061 | -0.0165 ± 0.0035 | -0.0105 ± 0.0035 | 0.0035 ± 0.049 | -0.02 ± 0.0014 | -0.0225 ± 0.005 | 0.009 ± 0.061 | -0.0225 ± 0.00071 | 0.013 ± 0.051
8 | CASM3C:LDLR | -0.029 ± 0.011 | -0.006 ± 0.0014 | -0.0085 ± 0.00071 | 0.0005 ± 0.023 | -0.019 ± 0.0028 | -0.025 ± 0.0042 | 0.0225 ± 0.022 | -0.0215 ± 0.023 | -0.008 ± 0.018 | 0.029 ± 0.047 | -0.006 ± 0.0099 | -0.0055 ± 0.005 | 0.0255 ± 0.035 | -0.0085 ± 0.037 | 0.0045 ± 0.036 | 0.018 ± 0.014 | -0.0135 ± 0.00071 | 0.0165 ± 0.029
9 | CASM3C:M-CSF | 0.0215 ± 0.013 | -0.0075 ± 0.011 | 0 ± 0.031 | 0.0615 ± 0.057 | -0.0255 ± 0.026 | -0.035 ± 0.02 | -0.0345 ± 0.011 | -0.039 ± 0.02 | -0.024 ± 0.042 | 0.0155 ± 0.1 | -0.011 ± 0.0028 | -0.018 ± 0.0042 | 0.0145 ± 0.036 | -0.0145 ± 0.042 | 0.024 ± 0.048 | 0.0875 ± 0.056 | -0.012 ± 0.013 | 0.0045 ± 0.043
10 | CASM3C:PAI-I | 0.0015 ± 0.005 | 0.004 ± 0.0071 | 0.0015 ± 0.012 | 0.015 ± 0.011 | -0.0035 ± 0.012 | 0.0005 ± 0.0035 | 0.007 ± 0.0014 | 0.001 ± 0.0057 | -0.0015 ± 0.00071 | 0.002 ± 0.013 | 0.0015 ± 0.021 | -0.003 ± 0.0071 | 0.0005 ± 0.0078 | 0.0075 ± 0.025 | 0.007 ± 0.013 | 0.0035 ± 0.0021 | -0.0125 ± 0.022 | -0.0005 ± 0.011
11 | CASM3C:Proliferation | -0.012 ± 0.016 | -0.0405 ± 0.052 | -0.0015 ± 0.018 | 0.048 ± 0.03 | -0.039 ± 0.079 | -0.039 ± 0.062 | -0.12 ± 0.03 | -0.066 ± 0.0071 | -0.004 ± 0.073 | 0.014 ± 0.051 | -0.017 ± 0.03 | -0.0095 ± 0.00071 | 0.039 ± 0.033 | 0.002 ± 0.013 | -0.012 ± 0.0099 | -0.003 ± 0.023 | 0.0455 ± 0.0078 | 0.041 ± 0.061
12 | CASM3C:SRB | 0.0025 ± 0.00071 | -0.002 ± 0.0028 | -0.003 ± 0.0028 | 0.001 ± 0.0071 | -0.0025 ± 0.0064 | -0.008 ± 0.0057 | -0.0275 ± 0.012 | -0.006 ± 0.0057 | -0.0025 ± 0.005 | -0.006 ± 0.0057 | -0.001 ± 0.0042 | 0.0085 ± 0.012 | -0.002 ± 0.011 | -0.007 ± 0.0014 | -0.0005 ± 0.0078 | -0.0025 ± 0.0035 | -0.006 ± 0.0042 | -0.011 ± 0.0028
13 | CASM3C:Serum Amyloid A | -0.0305 ± 0.013 | 0.029 ± 0.044 | 0.133 ± 0.18 | 0.344 ± 0.22 | 0.0105 ± 0.0092 | -0.0065 ± 0.00071 | 0.002 ± 0.045 | -0.032 ± 0.037 | -0.0515 ± 0.011 | 0.0105 ± 0.005 | -0.018 ± 0.0099 | -0.0275 ± 0.025 | 0.013 ± 0.082 | -0.008 ± 0.013 | 0.064 ± 0.059 | 0.159 ± 0.0057 | -0.015 ± 0.0014 | 0.014 ± 0.041
14 | HDF3CGF:CCL2/MCP-1 | -0.274 ± 0.013 | 0.014 ± 0.0057 | 0.0175 ± 0.0078 | 0.035 ± 0.031 | -0.044 ± 0.031 | -0.073 ± 0.027 | -0.172 ± 0.067 | -0.0025 ± 0.052 | 0.0075 ± 0.036 | 0 ± 0.033 | -0.032 ± 0.0085 | -0.0245 ± 0.0078 | -0.0205 ± 0.028 | -0.014 ± 0.016 | -0.01 ± 0.017 | 0.005 ± 0.0042 | -0.026 ± 0.034 | -0.008 ± 0.054
15 | HDF3CGF:CD54/ICAM-1 | -0.076 ± 0.016 | -0.0185 ± 0.0035 | -0.0205 ± 0.00071 | -0.012 ± 0.018 | 0.0025 ± 0.018 | -0.019 ± 0.04 | -0.106 ± 0.091 | 0.004 | 0.004 ± 0.0099 | 0.0005 ± 0.016 | -0.009 ± 0.013 | -0.0085 ± 0.018 | 0.011 ± 0.023 | 0.006 ± 0.0099 | -0.009 ± 0.041 | -0.0025 ± 0.005 | -0.013 ± 0.0099 | -0.0125 ± 0.012
16 | HDF3CGF:CD106/VCAM-1 | -0.479 ± 0.037 | -0.01 ± 0.05 | -0.0365 ± 0.09 | -0.016 ± 0.073 | -0.09 ± 0.0042 | -0.202 | -0.264 ± 0.044 | -0.001 ± 0.0071 | -0.016 ± 0.016 | -0.03 ± 0.04 | -0.0155 ± 0.0092 | -0.0165 ± 0.0021 | -0.024 ± 0.0028 | -0.0525 ± 0.069 | -0.0555 ± 0.12 | -0.0835 ± 0.12 | -0.0175 ± 0.00071 | 0.001 ± 0.0085
